The source of these data is patent publication US12637415B2, “Lyophilized composition comprising (s)-isopropyl 2-((s)-2-acetamido-3-(1H-indol-3-yl)propanamido)-6-diazo-5-oxohexanoate for intravenous administration and the use thereof” (DRACEN PHARMACEUTICALS, INC., priority 2019, dated 2026).

Assay type in all cases: physicochemical
Data set [1] can be described thus: Study Number 1: in-use stability diluted in normal saline in PVC containers (HPLC purity and concentration, 24 hour). Particulars: for Time stable at room temperature: 0.012-0.3 mg/mL diluted in normal saline in PVC containers. Here is the method:
The purity and concentration of Compound 1 as measured by HPLC were determined during a 24 hour test period while the drug product was held in its diluted state in normal saline in a polyvinyl chloride (PVC) clinical containers over a range of concentrations in 500 mL bags. The parameters of the study were: • Compound 1 dose: 6 mg and 150 mg in 500 mL • Concentration range: 0.012-0.3 mg/mL Compound 1 • Container size: 500 mL • Diluent: 0.9% normal saline, USP • Stability time points: 0, 4, 8, 24 hours • Storage condition: room temperature (15-25° C.) • Container composition: polyvinyl chloride • Light conditions: ambient light vs amber IV bag covers to limit UV exposure • Reconstitution: 80% (v/v) ethanol for reconstitution of the lyophilate, followed by dilution into normal saline.

Data set [2] can be described thus: Study Number 2: in-use stability in PVC and polyolefin containers, 4 hour hold plus 1 hour infusion (HPLC). Here is the method: (§1) The purity and concentration of Compound 1 as measured by HPLC were determined during a 5 hour test period while the drug product was held in polyvinyl chloride (PVC) and non-PVC, non-DEHP (polyolefin) clinical containers over a range of concentrations in 500 mL containers. Admixed containers were delivered with an […] infusion set by holding the infusion bag with diluted test article for 4 hours prior to a 1 hour infusion to assess in use stability over a total of 5 hours to mimic clinical practice. The parameters of the study were: • Compound 1 dose: 6 mg and 150 mg in 500 mL • Concentration range: 0.012-0.3 mg/mL Compound 1 • Container size: 500 mL • Diluent: 0.9% normal saline, USP • Stability time points: 0 hours, 4 hours (pre-infusion), 5 hours (post-1 hour infusion) • Storage condition: room temperature (15-25° C.) • Container composition: polyvinyl chloride and non-PVC, non-DEHP (polyolefin) • Light conditions: ambient light vs amber IV bag covers to limit UV exposure • Reconstitution: 80% (v/v) ethanol for reconstitution of the lyophilate, followed by dilution into normal saline.

Data set [3] can be described thus: Study Number 3: in-use stability in polyolefin containers after 50% ethanol reconstitution, 4 hour hold plus 1 hour infusion (HPLC). The procedure:
as §1, with “a” for “polyvinyl chloride (PVC) and non-PVC,”, “120” for “150”, “0.012-0.24” for “0.012-0.3”, “composition:” for “composition: polyvinyl chloride and non-PVC,”, “conditions:” for “conditions: ambient light vs”, “50%” for “80%”

Data set [4] can be described thus: Holding of compounded sterile filtered pre-lyophilization solutions (precipitation). Conditions: for Precipitation in held pre-lyophilization solution: 24 h; for Precipitation post filtration: vials stored at 17° C., 20° C., 22° C., or 25° C. for 24 h. Here is the method: Experiments were conducted to study the compounding and holding of pre-lyophilization solutions comprising Compound 1.
Vials of the compounded sterile filtered pre-lyophilization solutions were held at 17° C., 20° C., 22° C., and 25° C.

Data set [5] can be described thus: Compounding (dissolution) of pre-lyophilization solutions comprising Compound 1. The procedure:
Third, Compound 1 was dissolved in the solution at 30° C. After dissolution, the solution was cooled to room temperature (20-22° C.). Experiments were conducted to study the compounding and holding of pre-lyophilization solutions comprising Compound 1.

Each structure is given as a SMILES string.

As for `CC(=O)N[C@@H](Cc1c[nH]c2ccccc12)C(=O)N[C@@H](CCC(=O)C=[N+]=[N-])C(=O)OC(C)C` [Compound 1, (S)-isopropyl 2-((S)-2-acetamido-3-(1H-indol-3-yl)propanamido)-6-diazo-5-oxohexanoate], the “Appearance of diluted samples” value in data set [1] (0.012-0.3 mg/mL in normal saline, PVC, room temperature, through 24 hours) is reported as “remained clear”; in data set [2] (0.012-0.3 mg/mL in normal saline, PVC and polyolefin, room temperature, through 5 hours), “remained clear”; in data set [3] (0.012-0.24 mg/mL in normal saline, polyolefin, room temperature, through 5 hours, 50% ethanol reconstitution), “remained clear”. In addition, the “Time stable at room temperature” value in data set [1] (amber covered shroud protected from light) was “up to 24 hours”; in data set [1] (ambient light), “up to 8 hours”; in data set [2] (followed by a 1 hour infusion, amber shroud, polyolefin containers, low-sorb tubing, 0.012-0.3 mg/mL in normal saline) it was “up to 4 hours”; in data set [3] (followed by a 1 hour infusion, amber shroud, polyolefin containers, PVC or low-sorb tubing, 0.012-0.24 mg/mL in normal saline) it was “up to 4 hours”. The “Impurity testing (HPLC)” value is given as “greater impurities under ambient light with an increase in impurities observed over the course of the experiment” in data set [1] (ambient light vs amber cover, 0-24 hours, PVC container); “greater impurities under ambient light with an increase in impurities observed over the course of the experiment” in data set [2] (ambient light vs amber cover, 4 hours and 1 hour post infusion compared to baseline); “no impurities at any time point” in data set [3] (all time points (0, 4, 5 hours), polyolefin, amber cover). Besides, the “Precipitation in held pre-lyophilization solution” value in data set [4] (17° C., 10 mg/mL) is given as “remain free of precipitation”; in data set [4] (17° C., 12.5 mg/mL) it was “remain free of precipitation”. Further, in data set [4] (17° C., 15 mg/mL), the “Time to precipitation of pre-lyophilization solution” value was “occurs within 1 h at 15 mg/mL”. In data set [4] (Exp 4: 15 mg/mL, sterile filtered, vial held at 17° C., at 1 h), the “Precipitation post filtration (observed or not)” value is reported as “observed in vial held”. Moreover, the Precipitation post filtration entry in data set [4] (Exp 5: 12.5 mg/mL) and in data set [4] (Exp 6: 10 mg/mL) was “No precipitation” in each case. Besides, the Dissolution time in data set [5] (Exp 2: excipients and Compound 1 15 mg/mL at 25° C., single vessel) is >6.5 h (estimated at; in data set [5] (Exp 3: 15 mg/mL, two vessels, after mixing aqueous and organic portions, held at the temperature of the organic phase), 1.25 h; in data set [5] (Exp 4: excipients and Compound 1 15 mg/mL at 30° C., single vessel), “Dissolution time: 5 h”; in data set [5] (Exp 5: excipients and Compound 1 12.5 mg/mL at 30° C., single vessel) it was 3.66 h; in data set [5] (Exp 6: excipients and Compound 1 10 mg/mL at 30° C., single vessel) it was 1.75 h. Besides, in data set [5] (Exp 2: excipients and Compound 1 15 mg/mL at 25° C., single vessel, estimated), the “Dissolution time (estimated)” value is about 9.5 h. The “Dissolution of Compound 1 in ethanol and t-butanol (organic dissolution)” value in data set [5] (Exp 3: 15 mg/mL, two vessels (separate aqueous and organic), 25° C. stepped up to 35° C.) was “remains as solid even at”.
